Structures can show the parent of a compound that is named as a salt. Where two headings read alike, the source gives them in different places.
What was measured:
[1] = molecular target: T1, SARS-CoV-2 PLpro (nsp3 1564–1878) (Severe acute respiratory syndrome coronavirus 2, UniProt P0DTD1); assay: biochemical; parameters: FRET-quenched peptide (Pro3) cleavage by PLpro, 10 min pre-incubation, slope over 20 min, normalised to no-compound control; conditions: high concentration screen, read-out: % of control remaining
[2] = molecular target: T1, SARS-CoV-2 PLpro (nsp3 1564–1878); assay: biochemical; parameters: FRET-quenched peptide (Pro3) cleavage by PLpro, 10 min pre-incubation, slope over 20 min, normalised to no-compound control; conditions: low concentration screen, read-out: % of control remaining

Question: For `CC(N)=NCCCCC(N)C(=O)O` (stereo in doubt) [L-N6-(1-Iminoethyl)lysine hydrochloride], which remaining activity at 3.75 µM ([1]; Well no.=871) is on record?
Answer: Its remaining activity at 3.75 µM is 102%.

Question: What about the remaining activity at 1.25 µM ([2]; Well no.=871) of the same compound?
Answer: The remaining activity at 1.25 µM was 107%.

Question: How did the remaining activity at 3.75 µM ([1]; Well no.=4629) turn out when `Nc1ncnc2c1c(-c1cccc(OCc3ccccc3)c1)cn2C1CC(CN2CCCC2)C1` (stereo in doubt) [NVP-ADW742] was run?
Answer: The remaining activity at 3.75 µM was 93.2%.

Question: And the remaining activity at 1.25 µM ([2]; Well no.=4629)?
Answer: Its remaining activity at 1.25 µM is 95.7%.

Question: Which results are given for `CC[C@@H](C)C(=O)O[C@H]1[C@H](O)[C@H]2[C@@H](CN3C[C@@H](C)CC[C@H]3[C@@]2(C)O)[C@@H]2C[C@]34O[C@]5(O)[C@@H](OC(=O)[C@](C)(O)[C@@H](C)O)CC[C@@]3(C)[C@@H]5[C@@H](OC(C)=O)[C@@H](OC(C)=O)[C@H]4[C@@]21O` (stereo in doubt) [Protoveratrine B]?
Answer: remaining activity at 3.75 µM ([1]; Well no.=3454): 98.3%; remaining activity at 1.25 µM ([2]; Well no.=3454): 97.9%

Question: What does the source list for `CCCCC1(C2CCCC2)Cc2cc(OCC(=O)O)c(Cl)c(Cl)c2C1=O` (stereo in doubt) [R(+)-Butylindazone]?
Answer: remaining activity at 3.75 µM ([1]; Well no.=640): 101%; remaining activity at 1.25 µM ([2]; Well no.=640): 97.4%

Question: Which remaining activity at 3.75 µM ([1]; Well no.=6150) does the source give for `COc1cc(C=CC(=O)O)cc(OC)c1O` (stereo in doubt) [Sinapinic acid] here?
Answer: The remaining activity at 3.75 µM was 102%.

Question: And the remaining activity at 1.25 µM ([2]; Well no.=6150)?
Answer: Its remaining activity at 1.25 µM is 102%.

Question: How did the remaining activity at 3.75 µM ([1]; Well no.=114) turn out when `NCC=CC(=O)O` (stereo in doubt) [cis-4-Aminocrotonic acid] was run?
Answer: Its remaining activity at 3.75 µM is 98.2%.

Question: What about the remaining activity at 1.25 µM ([2]; Well no.=114) of the same compound?
Answer: Its remaining activity at 1.25 µM is 97.3%.

Question: For `CC(C)(CN1C(=O)C(Cl)=C(Cl)C1=O)CN1C(=O)C(Cl)=C(Cl)C1=O` [1,1'-(2,2-dimethylpropane-1,3-diyl)bis(3,4-dichloro-1H-pyrrole-2,5-dione)], which remaining activity at 3.75 µM ([1]; Well no.=5957) is on record?
Answer: The remaining activity at 3.75 µM was 105%.

Question: And the remaining activity at 1.25 µM ([2]; Well no.=5957)?
Answer: The remaining activity at 1.25 µM was 102%.

Question: Which remaining activity at 3.75 µM ([1]; Well no.=5981) does the source give for `COc1cc(C(C)=O)cc(-c2cc(C(C)=O)cc(OC)c2O)c1O` [1,1'-(6,6'-dihydroxy-5,5'-dimethoxy-[1,1'-biphenyl]-3,3'-diyl)bis(ethan-1-one)] here?
Answer: The remaining activity at 3.75 µM was 96.6%.

Question: And the remaining activity at 1.25 µM ([2]; Well no.=5981)?
Answer: Its remaining activity at 1.25 µM is 101%.

Question: What does the source list for `C[N+]1(C)CCN(c2ccccc2)CC1` [1,1-Dimethyl-4-phenyl-piperazinium iodide]?
Answer: remaining activity at 3.75 µM ([1]; Well no.=741): 92.3%; remaining activity at 1.25 µM ([2]; Well no.=741): 92%

Question: Which remaining activity at 3.75 µM ([1]; Well no.=5460) does the source give for `CCCCCCCCCCCCCCCCCCOP(=O)([O-])OC1CC[N+](C)(C)CC1` [1,1-dimethylpiperidinium-4-yl octadecyl phosphate] here?
Answer: Its remaining activity at 3.75 µM is 107%.

Question: What about the remaining activity at 1.25 µM ([2]; Well no.=5460) of the same compound?
Answer: Its remaining activity at 1.25 µM is 102%.

Question: Which results are given for `BrC1C(Br)C(Br)C(Br)C(Br)C1Br` (centres unmarked) [1,2,3,4,5,6-Hexabromocyclohexane - 1,2,3,4,5,6-Hexabromocyclohexane]?
Answer: remaining activity at 3.75 µM ([1]; Well no.=2524): 97.7%; remaining activity at 1.25 µM ([2]; Well no.=2524): 96.3%

Question: For `CCCCCCCCCC(=O)OCC(CO)OC(=O)CCCCCCCCC` (centres unmarked) [1,2-Didecanoyl-glycerol (10:0)], which remaining activity at 3.75 µM ([1]; Well no.=4474) is on record?
Answer: Its remaining activity at 3.75 µM is 95.2%.

Question: And the remaining activity at 1.25 µM ([2]; Well no.=4474)?
Answer: The remaining activity at 1.25 µM was 101%.

Question: `CCCCCCCC(=O)OC[C@H](CO)OC(=O)CCCCCCC` [1,2-Dioctanoyl-SN-glycerol] was tested. Which remaining activity at 3.75 µM ([1]; Well no.=4476) did it give?
Answer: Its remaining activity at 3.75 µM is 107%.

Question: And the remaining activity at 1.25 µM ([2]; Well no.=4476)?
Answer: The remaining activity at 1.25 µM was 103%.

Question: For `CCCCCCCC/C=C\CCCCCCCC(=O)OCC(CO)OC(=O)CCCCCCC/C=C\CCCCCCCC` (centres unmarked) [1,2-Dioleoyl-glycerol (18:1)], which remaining activity at 3.75 µM ([1]; Well no.=4478) is on record?
Answer: Its remaining activity at 3.75 µM is 100%.

Question: What about the remaining activity at 1.25 µM ([2]; Well no.=4478) of the same compound?
Answer: The remaining activity at 1.25 µM was 96%.

Question: With `S=c1ccss1` [1,2-Dithiole-3-thione] as the compound, how does the remaining activity at 3.75 µM ([1]; Well no.=4139) read?
Answer: The remaining activity at 3.75 µM was 94.1%.

Question: What about the remaining activity at 1.25 µM ([2]; Well no.=4139) of the same compound?
Answer: The remaining activity at 1.25 µM was 93.1%.

Question: What does the source list for `CCCc1c(-c2ccc(O)cc2)nn(-c2ccc(O)cc2)c1-c1ccc(O)cc1` [1,3,5-tris(4-hydroxyphenyl)-4-propyl-1H-pyrazole]?
Answer: remaining activity at 3.75 µM ([1]; Well no.=468): 109%; remaining activity at 1.25 µM ([2]; Well no.=468): 105%

Question: `CCn1c(=O)c2[nH]c(-c3ccccc3)nc2n(CC)c1=O` [1,3-Diethyl-8-phenylxanthine] was tested. Which remaining activity at 3.75 µM ([1]; Well no.=204) did it give?
Answer: The remaining activity at 3.75 µM was 100%.

Question: What about the remaining activity at 1.25 µM ([2]; Well no.=204) of the same compound?
Answer: The remaining activity at 1.25 µM was 98.5%.

Question: With `Cn1c(=O)c2[nH]c(-c3ccccc3)nc2n(C)c1=O` [1,3-Dimethyl-8-phenylxanthine] as the compound, how does the remaining activity at 3.75 µM ([1]; Well no.=952) read?
Answer: The remaining activity at 3.75 µM was 99.2%.

Question: What about the remaining activity at 1.25 µM ([2]; Well no.=952) of the same compound?
Answer: Its remaining activity at 1.25 µM is 103%.

Question: Which results are given for `Cn1c(=O)c2[nH]c(=O)[nH]c2n(C)c1=O` [1,3-Dimethyluric acid]?
Answer: remaining activity at 3.75 µM ([1]; Well no.=6819): 95.7%; remaining activity at 1.25 µM ([2]; Well no.=6819): 99.4%

Question: `CCCn1c(=O)c2c(ncn2C)n(CCC)c1=O` [1,3-Dipropyl-7-methylxanthine] was tested. Which remaining activity at 3.75 µM ([1]; Well no.=448) did it give?
Answer: The remaining activity at 3.75 µM was 101%.

Question: And the remaining activity at 1.25 µM ([2]; Well no.=448)?
Answer: The remaining activity at 1.25 µM was 102%.

Question: With `N=C(N)SCCc1cccc(CCSC(=N)N)c1` [1,3-PBIT dihydrobromide] as the compound, how does the remaining activity at 3.75 µM ([1]; Well no.=1159) read?
Answer: The remaining activity at 3.75 µM was 104%.

Question: And the remaining activity at 1.25 µM ([2]; Well no.=1159)?
Answer: Its remaining activity at 1.25 µM is 104%.

Question: How did the remaining activity at 3.75 µM ([1]; Well no.=589) turn out when `OC[C@H]1NC[C@@H](O)[C@@H]1O` [1,4-Dideoxy-1,4-imino-D-arabinitol] was run?
Answer: The remaining activity at 3.75 µM was 100%.

Question: What about the remaining activity at 1.25 µM ([2]; Well no.=589) of the same compound?
Answer: The remaining activity at 1.25 µM was 102%.

Question: Which remaining activity at 3.75 µM ([1]; Well no.=536) does the source give for `OC[C@@H](O)[C@H]1NC[C@@H](O)[C@H]1O` [1,4-Dideoxy-1,4-imino-D-mannitol hydrochloride] here?
Answer: Its remaining activity at 3.75 µM is 99.2%.

Question: And the remaining activity at 1.25 µM ([2]; Well no.=536)?
Answer: Its remaining activity at 1.25 µM is 101%.

Question: Which results are given for `N=C(N)SCCc1ccc(CCSC(=N)N)cc1` [1,4-PBIT dihydrobromide]?
Answer: remaining activity at 3.75 µM ([1]; Well no.=1255): 105%; remaining activity at 1.25 µM ([2]; Well no.=1255): 104%

Question: How did the remaining activity at 3.75 µM ([1]; Well no.=827) turn out when `O=c1[nH]ccc2c(O)cccc12` [1,5-Isoquinolinediol] was run?
Answer: Its remaining activity at 3.75 µM is 99.5%.

Question: And the remaining activity at 1.25 µM ([2]; Well no.=827)?
Answer: Its remaining activity at 1.25 µM is 97.8%.

Question: `Cn1c(=O)[nH]c2ncn(C)c2c1=O` [1,7-Dimethylxanthine] was tested. Which remaining activity at 3.75 µM ([1]; Well no.=691) did it give?
Answer: Its remaining activity at 3.75 µM is 99.7%.

Question: What about the remaining activity at 1.25 µM ([2]; Well no.=691) of the same compound?
Answer: Its remaining activity at 1.25 µM is 98.6%.

Question: For `NCCCCCCCCCCN` [1,10-Diaminodecane], which remaining activity at 3.75 µM ([1]; Well no.=642) is on record?
Answer: Its remaining activity at 3.75 µM is 91.7%.

Question: What about the remaining activity at 1.25 µM ([2]; Well no.=642) of the same compound?
Answer: The remaining activity at 1.25 µM was 94.7%.

Question: Which results are given for `c1cnc2c(c1)ccc1cccnc12` [1,10-Phenanthroline monohydrate]?
Answer: remaining activity at 3.75 µM ([1]; Well no.=1259): 101%; remaining activity at 1.25 µM ([2]; Well no.=1259): 101%

Question: For `c1ccc2c(N3CCNCC3)cccc2c1` [1-(1-Naphthyl)piperazine hydrochloride], which remaining activity at 3.75 µM ([1]; Well no.=1467) is on record?
Answer: The remaining activity at 3.75 µM was 99.2%.

Question: What about the remaining activity at 1.25 µM ([2]; Well no.=1467) of the same compound?
Answer: The remaining activity at 1.25 µM was 99.5%.

Question: What does the source list for `Clc1ccc(C(c2ccccc2Cl)C(Cl)Cl)cc1` (centres unmarked) [1-(2-Chlorophenyl)-1-(4-chlorophenyl)-2,2-dichloroethane]?
Answer: remaining activity at 3.75 µM ([1]; Well no.=76): 97.1%; remaining activity at 1.25 µM ([2]; Well no.=76): 96.7%

Question: How did the remaining activity at 3.75 µM ([1]; Well no.=1181) turn out when `COc1ccccc1N1CCNCC1` [1-(2-Methoxyphenyl)piperazine hydrochloride] was run?
Answer: The remaining activity at 3.75 µM was 102%.

Question: And the remaining activity at 1.25 µM ([2]; Well no.=1181)?
Answer: The remaining activity at 1.25 µM was 104%.

Question: What does the source list for `O=c1[nH]c2ccccc2n1CCN1CCN(c2cccc(C(F)(F)F)c2)CC1` [1-(2-{4-[3-(trifluoromethyl)phenyl]-1-piperazinyl}ethyl)-1,3-dihydro-2H-benzimidazol-2-one]?
Answer: remaining activity at 3.75 µM ([1]; Well no.=5866): 97.9%; remaining activity at 1.25 µM ([2]; Well no.=5866): 103%

Question: For `CCCCCC(=O)c1c(O)c(Cl)c(OC)c(Cl)c1O` [1-(3,5-dichloro-2,6-dihydroxy-4-methoxyphenyl)-1-hexanone], which remaining activity at 3.75 µM ([1]; Well no.=5626) is on record?
Answer: Its remaining activity at 3.75 µM is 102%.

Question: And the remaining activity at 1.25 µM ([2]; Well no.=5626)?
Answer: The remaining activity at 1.25 µM was 99.3%.

Question: How did the remaining activity at 3.75 µM ([1]; Well no.=36) turn out when `Clc1cccc(N2CCNCC2)c1` [1-(3-Chlorophenyl)piperazine dihydrochloride] was run?
Answer: Its remaining activity at 3.75 µM is 104%.

Question: And the remaining activity at 1.25 µM ([2]; Well no.=36)?
Answer: The remaining activity at 1.25 µM was 106%.
